One data set is described as follows: Stability in PBS pH 6.5. As to conditions: for half-life: PBS, pH 6.5, T½.
The next data set is described as follows: physchem. To be noted: buffer, pH 6.5.
Data set [1] is described as follows: Stability in SGF with pepsin. Format: physicochemical.
Data set [2] can be described thus: Stability in Mouse Plasma. Format: in vitro ADME.
A short description of data set [3]: Stability in SGF without pepsin. Format: physicochemical.
For data set [4] the following is noted: background statement, cited from earlier work.
Where [5] appears, read: Table 8, if calculated T½ < 0, T½ reported as 9999 min.

Consider four molecules from patent US11643391B2, “Prodrugs and conjugates of dimethyltryptamine” (priority 2021, dated 2023).

Turning to `CC(OC(=O)C(C)C)OC(=O)n1cc(CCN(C)C)c2ccccc21` (stereo not shown) [VLS-03-10], the “Peak Area of MRM: 188.7/144.0 (analyte VLS-03-10 Parent)” value (“Peak Area of MRM” for short) amounted to 5.32E+03 in “Stability in PBS pH 6.5” (0 min); 4.68E+03 in “Stability in PBS pH 6.5” (30 min); 5.00E+03 in the data set “Stability in PBS pH 6.5” (60 min); 4.72E+03 in “Stability in PBS pH 6.5” (120 min); 4.95E+03 in the data set “Stability in PBS pH 6.5” (240 min); 4.34E+03 in “Stability in PBS pH 6.5” (VLS-03-10 standard). The “Peak Area of MRM” value in data set [1] (0 min) was found to be 5.13E+03; in data set [1] (30 min) it was 5.10E+03; in data set [1] (60 min), 5.25E+03; in data set [1] (120 min), 5.32E+03; in data set [1] (240 min) it was 5.28E+03; in data set [1] (VLS-03-10 standard) it was 4.05E+03. The “Peak Area of MRM” value is reported as 5.29E+03 in data set [3] (0 min); 4.98E+03 in data set [3] (30 min); 4.66E+03 in data set [3] (60 min); 4.93E+03 in data set [3] (120 min); 4.61E+03 in data set [3] (240 min); 3.46E+03 in data set [3] (VLS-03-10 standard). The “Remaining Percentage” value in the data set “Stability in PBS pH 6.5” (Table 8, 0 min) is 100.00%; in “Stability in PBS pH 6.5” (Table 8, 30 min) it was 92.62%; in “Stability in PBS pH 6.5” (Table 8, 60 min), 100.03%; in the data set “Stability in PBS pH 6.5” (Table 8, 120 min) it was 92.63%; in the data set “Stability in PBS pH 6.5” (Table 8, 240 min), 97.66%; in data set [1] (Table 8, 0 min) it was 100.00%. Also, the “Remaining Percentage” value in data set [1] (Table 8, 30 min) is 96.82%; in data set [1] (Table 8, 60 min), 93.09%; in data set [1] (Table 8, 120 min) it was 91.42%; in data set [1] (Table 8, 240 min) it was 89.32%; in data set [2] (Table 9, 0 min), 100.00%; in data set [2] (Table 9, 15 min) it was 0.00%. Moreover, the “Remaining Percentage” value in data set [2] (Table 9, 30 min) came out at 0.00%; in data set [2] (Table 9, 60 min) it was 0.00%; in data set [2] (Table 9, 120 min), 0.00%; in data set [3] (Table 8, 0 min), 100.00%; in data set [3] (Table 8, 30 min) it was 99.86%; in data set [3] (Table 8, 60 min), 104.95%. Besides, the “Remaining Percentage” value in data set [3] (Table 8, 120 min) was found to be 98.41%; in data set [3] (Table 8, 240 min), 98.86%. The half-life is 331 h in “physchem”, 26.7 h in data set [1] (setting [5]) and 117 h in data set [3] (setting [5]).

As to `C[N+](C)(CCc1c[nH]c2ccccc12)COP(=O)([O-])O` [VLS-02-23], the T½ (in the data set “Stability in PBS pH 6.5” (Table 10); in data set [3] (Table 10)) was 166.65 h throughout. Also, the “Remaining Percentage” value is given as 100.00% in “Stability in PBS pH 6.5” (Table 10, 0 min); 104.71% in “Stability in PBS pH 6.5” (Table 10, 30 min); 106.37% in “Stability in PBS pH 6.5” (Table 10, 60 min); 107.29% in the data set “Stability in PBS pH 6.5” (Table 10, 120 min); 117.35% in the data set “Stability in PBS pH 6.5” (Table 10, 240 min); 100.00% in data set [1] (Table 10, 0 min). Also, the “Remaining Percentage” value in data set [1] (Table 10, 30 min) amounted to 96.70%; in data set [1] (Table 10, 60 min), 106.43%; in data set [1] (Table 10, 120 min), 102.36%; in data set [1] (Table 10, 240 min), 96.82%; in data set [2] (Table 11, 0 min), 100.00%; in data set [2] (Table 11, 15 min) it was 114.24%. For the same molecule, the “Remaining Percentage” value is listed as 110.21% in data set [2] (Table 11, 30 min); 109.95% in data set [2] (Table 11, 60 min); 91.16% in data set [2] (Table 11, 120 min); 100.00% in data set [3] (Table 10, 0 min); 98.76% in data set [3] (Table 10, 30 min); 107.08% in data set [3] (Table 10, 60 min). Besides, the “Remaining Percentage” value in data set [3] (Table 10, 120 min) amounted to 101.90%; in data set [3] (Table 10, 240 min), 108.80%. The half-life in data set [1] (Table 10, read-out: T½) amounted to 104 h; in data set [2] (mouse, plasma, Table 11, read-out: T½), 9.47 h.

Turning to `O=C(O)CCCc1ccc(N(CCCl)CCCl)cc1` [Chlorambucil, reference compound], the half-life in “Stability in PBS pH 6.5” (setting [5]) was 0.787 h; in the data set “Stability in PBS pH 6.5” (Table 10) it was 0.72 h. In addition, the “Remaining Percentage” value in “Stability in PBS pH 6.5” (Table 8, 0 min) is recorded as 100.00%; in “Stability in PBS pH 6.5” (Table 8, 30 min), 64.51%; in the data set “Stability in PBS pH 6.5” (Table 8, 60 min), 42.26%; in the data set “Stability in PBS pH 6.5” (Table 8, 120 min), 16.83%; in the data set “Stability in PBS pH 6.5” (Table 8, 240 min), 2.99%; in “Stability in PBS pH 6.5” (Table 10, 0 min), 100.00%. For the same molecule, the “Remaining Percentage” value in the data set “Stability in PBS pH 6.5” (Table 10, 30 min) came to 61.12%; in the data set “Stability in PBS pH 6.5” (Table 10, 60 min), 43.17%; in the data set “Stability in PBS pH 6.5” (Table 10, 120 min) it was 15.12%; in “Stability in PBS pH 6.5” (Table 10, 240 min) it was 2.15%.

On to `CN(C)CCc1c[nH]c2ccccc12` [DMT, N,N-dimethyltryptamine], for which the estimated half-life entry in data set [4] (at higher doses) was “less than fifteen minutes”. Moreover, in data set [4] (converted by monoamine oxidases), the oral bioavailability result is on record as “poor oral bioavailability”.
